Results: article PMC7714071, “Interaction of amyloid beta with humanin and acetylcholinesterase is modulated by ATP” (FEBS Open Bio, 2020)

Tests used:
Aβ40 = conditions: HN and AChE compared; cited from earlier work
Description: Amino acid residues involved in direct interactions between HN and Aβ40 were identified previously by molecular modeling. The specific epitopes at the binding interface between HN and Aβ40 were identified, by proteolytic epitope excision and extraction in addition to affinity–mass spectrometric data analysis, to be HN (5–15) and Aβ (17–28). […] Inhibiting the 17–28 region of Aβ reduced aggregation of the neurotoxic amyloid fibrils and related cytotoxicity in SH‐SY5Y, a human neuroblastoma cell ... || Humanin has been previously reported to bind amino acid residues 17–28 of Aβ (Fig. 1). AChE is also known to bind Aβ (1–16) and the Aβ (12–28) region (Fig. 1). Since the binding sites of AChE and HN on Aβ are overlapping, we previously investigated whether HN and AChE can simultaneously bind Aβ [79].

[1] = test system: AChE-Aβ complex (A549 cell-conditioned media); assay: ELISA, AChE found in a complex with Aβ in A549 cell-conditioned media; format: binding, human
Method: Human NSCLC cell lines, A549 (ATCC CCL‐185) and H1299 (ATCC CRL‐5803), were purchased from the American Type Culture Collection (ATCC, Manassas, VA, USA). Cells were seeded as we reported earlier in 5 mL HyClone Dulbecco's modified Eagle's medium/nutrient mixture F‐12 (DMEM/F12) (GE Healthcare Life Sciences, Pittsburgh, PA, USA), supplemented with 10% Fetalgro bovine growth serum (FBS; RMBIO, Missoula, MT, USA), 50 U·mL^−1 penicillin, and […] streptomycin (Invitrogen, Life Technologies, Carlsbad, CA, USA) in 25‐cm^2 tissue culture flasks, and allowed to grow overnight in an incubator at 37 °C, 95% humidity, and 5% CO2. The cells were counted after trypan blue staining, with a hemocytometer.
ELISAs were carried out as we previously reported. Nunc MaxiSorp 96‐well flat bottom plate (Thermo Fisher) wells were coated with samples as indicated. The plates were incubated overnight at 4 °C on a shaker to allow binding of the samples to the plate wells. After the incubation, the wells were washed 4× with TBST, filled with 400 µL blocking buffer (110 mM KCl, 5 mM NaHCO3, 5 mM MgCl2, 1 mM EGTA, 0.1 mM CaCl2, 20 mM HEPES, 1% BSA, pH 7.4), and incubated with shaking overnight at 4 °C. […] TBST was then used to wash the wells 4× before proceeding in one of two ways: (a) biotinylated samples were analyzed by adding 100 µL streptavidin–HRP conjugate in TBST (1 : 2500 dilution) to the samples followed by incubation for 3 h at RT on a shaker, or (b) samples without biotin were analyzed by adding 100 µL TBST containing the primary antibody as per the manufacturer's recommendation, incubating for 3 h at RT on a shaker, followed by washing the wells 4× with TBST. […] The reaction was stopped with 100 µL 2 M H2SO4 after incubating at RT for 0.5–15 min, resulting in a yellow color change, measured by absorbance at 450 nm. […] Before analysis, the OD from the data was corrected for nonspecific binding by subtracting the mean background absorbance for the negative controls. […] Statistical analysis was determined by the […] […] Data were expressed as the mean ± SD. […]

Aβ cytotoxicity = conditions: cited from earlier work
Description: Almost all types of cells produce amyloid beta (Aβ), a peptide well recognized for its role in the development and progression of different stages of Alzheimer's disease (AD). The Aβ peptide is ~ 4 kDa and derived from the sequential processing of the higher molecular weight amyloid precursor protein by two membrane‐bound endoproteases, β‐ and γ‐secretase. Different C‐terminal Aβ heterogeneity results from processing by γ‐secretase, where Aβ40 represents the most abundant isoform (~ 90%) as compared to Aβ42 (~ 10%). Self‐assembled Aβ40/42 peptides into amyloid fib ... || Soluble oligomers of proteins implicated in different diseases are primarily thought to be the main toxic form as opposed to the larger fibrillar assemblies. Aβ regions containing Tyr and Ser (H6DSGY10 and G25SNKG29) (Fig. 1) along with post‐translational modifications of these regions, have been implicated in misfolding, oligomerization, or fibril formation of Aβ [5, 10, 11, 16, 41]. […] Aβ proteins a ... || Acetylcholinesterase (AChE) is an enzyme known for its role in terminating acetylcholine‐mediated neurotransmission at the synaptic cleft. The majority of the cortical AChE in the Alzheimer's brain is mainly associated with the amyloid core of senile plaques. […]

| Compound | affinity for Aβ40 (Aβ40) | decrease in levels of AChE found in a complex with Aβ ([1]; 100 μM ATP, 6E10 or 82E1 on wells, three experiments in triplicate, Fig. 5A) | levels of AChE found in a complex with Aβ ([1]; 1 mM ATP, 6E10 or 82E1 on wells, Fig. 5A) | Aβ detected on anti-AChE wells upon ATP addition ([1]; anti-AChE on wells, Aβ detected by 6E10 or 82E1, Fig. 5B) | effect on Aβ-mediated cytotoxicity (Aβ cytotoxicity) |
| --- | --- | --- | --- | --- | --- |
| Humanin [HN] | comparable affinities |  |  |  |  |
| Nc1ncnc2c1ncn2[C@@H]1O[C@H](COP(=O)(O)OP(=O)(O)OP(=O)(O)O)[C@@H](O)[C@H]1O [ATP, Adenosine triphosphate] |  | ~ 2.3 fold | decreased to almost blank levels | comparable decrease in the levels of Aβ | protective |
